For series [1], the system named is human erythroid progenitors (CFU-E, BFU-E). As to the kind of experiment: Erythroid CFU assay (colony forming cell assay, bone marrow). The format is cell-based. To be noted: 14 days in culture. The method, then: (§1) Compounds were tested to evaluate the potential effects on human erythroid and myeloid progenitors using colony forming cell assays. Clonogenic progenitors of human erythroid (CFU-E, BFU-E), granulocyte-monocyte (CFU-GM) and multipotential (CFU-GEMM) lineages were assessed in a semi-solid methylcellulose-based media formulation containing rhlL-3 (10 ng/mL), rhGM-SCF (10 ng/mL), rhSCF (50 ng/mL) and Epo (3 U/mL).
(§2) Normal human bone marrow light density cells derived from normal bone marrow (NorCal Biologics, California), were stored in the gaseous phase of liquid nitrogen (−152° C.) until required for the assay. On the day of the experiment, the cells were thawed rapidly, the contents of each vial was diluted in 10 mL of Iscove's modified Dulbecco's medium containing 10% fetal bovine serum (IMDM+10% FBS) and washed by centrifugation (approximately 1200 r.p.m. for 10 minutes, room temperature). The supernatant was discarded and the cell pellets resuspended in a known volume of IMDM+10% FBS. A cell count (3% glacial acetic acid) and viability assessment (trypan blue exclusion test) was performed for the bone marrow sample.
(§3) On the day of the experiment, the compounds were dissolved in DMSO to a stock concentration of 10 mM. Serial dilutions were prepared from the stock concentration to achieve concentrations of 2 and 0.4 mM. When added to the methylcellulose-based media at 1:1000 (v/v), the final test concentrations of 10, 2 and 0.4 μM were achieved. Additionally, 5-FU was evaluated at 1.0, 0.1 and 0.01 μg/mL.
(§4) Clonogenic progenitors of the human erythroid (CFU-E and BFU-E) and myeloid (CFU-GM) lineages were set up in the methylcellulose-based media formulations described above. All compounds were added to the medium to give the final desired concentrations (10, 2 and 0.4 μM). 5-Fluorouracil (Sigma Aldrich) was used as a positive control for progenitor proliferation (inhibition of colony growth) and was introduced to the human bone marrow cultures at 1.0, 0.1, and 0.01 μg/mL. Solvent control cultures (containing no compound but 0.1% DMSO) as well as standard controls (containing no compound and no DMSO) were also initiated.
(§5) Human myeloid and erythroid progenitor assays were initiated at 2.0×10^4 cells per culture. Following 14 days in culture, myeloid and erythroid colonies were assessed microscopically and scored by trained personnel. The colonies were divided into the following categories based on size and morphology: CFU-E, BFU-E, CFU-GM and CFU-GEMM.
(§6) The mean±one standard deviation of three replicate cultures was calculated for progenitors of each category (CFU-E, BFU-E, etc.). Two-tailed t-tests were performed to assess if there was a difference in the number of colonies generated between solvent control and treated cultures. Due to the potential subjectivity of colony enumeration, a p value of less than 0.01 is deemed significant. To calculate the concentration of 50% inhibition of colony growth (IC50) for each compound, a dose response curve was generated plotting the log of the compound concentration versus the percentage of control colony growth using XLfit software (IDBS). The concentration of 50% inhibition of colony growth (IC50) was calculated based on the sigmoid curve fit using Dose-Response, One-Site Model formula: y=A+[(B−A)/(1+((C/x)^D))], where A=the initial value (baseline response), B=maximum response, C=center (drug concentration that provokes a response halfway between A and B) and D=slope of the curve at midpoint. Further, plots and additional dose response curves were generated using GraphPad Prism 7.0.
(§7) Erythroid (CFU-E and BFU-E), myeloid (CFU-GM) and multi-potential (CFU-GEMM) colony enumeration was performed by trained personnel. The distribution of colony types as well as general colony and cellular morphology was analyzed. For statistical analysis colony numbers in compound treated cultures were compared to the solvent control cultures. […]

In series [2] the test system is human myeloid progenitors (CFU-GM). As to the kind of experiment: Myeloid CFU assay (colony forming cell assay, bone marrow). The format is cell-based. To be noted: 14 days in culture. The method, then: as §1, §2, §3, §4, §5, §6, §7

In the case of `Nc1ccc(-c2ccc(F)cc2)nc1NC(=O)N1Cc2cn(C3COC3)nc2C1` [Compound 1], the “Erythroid % control @ 10 uM dose” value in series [1] was determined as 37%. The “Myeloid % control @ 10 uM dose” value in series [2] was determined as 54%.

Regarding `Cc1ncc2c(n1)CN(C(=O)Nc1nc(-c3ccc(F)s3)ccc1N)C2` [Compound 2], the “Erythroid % control @ 10 uM dose” value in series [1] stood at 40%. Besides, the “Myeloid % control @ 10 uM dose” value in series [2] is on record as 87%.

Turning to `CCc1ncc2c(n1)CN(C(=O)Nc1nc(-c3cccs3)ccc1N)C2` [Compound 3], the “Erythroid % control @ 10 uM dose” value in series [1] worked out at 46.6%. Further, the “Myeloid % control @ 10 uM dose” value in series [2] was determined as 89.4%.

Consider `CCc1cc2c(cn1)CN(C(=O)Nc1nc(-c3cccnc3)ccc1N)C2` [Compound 8], for which the “Erythroid % control @ 10 uM dose” value in series [1] is given as 98%. In addition, the “Myeloid % control @ 10 uM dose” value in series [2] was 102%.

As to `COCCn1cc2c(n1)CN(C(=O)Nc1nc(-c3ccc(F)cc3F)ccc1N)C2` [Compound 9], the “Erythroid % control @ 10 uM dose” value in series [1] is 40.4%. Moreover, the “Myeloid % control @ 10 uM dose” value in series [2] was 62.8%.

Turning to `Cc1cc2c(cn1)CN(C(=O)Nc1nc(-c3cccnc3)ccc1N)C2` [Compound 12], the “Erythroid % control @ 10 uM dose” value in series [1] is 93%. Also, the “Myeloid % control @ 10 uM dose” value in series [2] is recorded as 104%.

In the case of `Cc1ncc2c(n1)CN(C(=O)Nc1nc(-c3ccc(F)cc3)ccc1N)C2` [Compound 14], in series [1], the “Erythroid % control @ 10 uM dose” value worked out at 53%. Moreover, the “Myeloid % control @ 10 uM dose” value in series [2] was 112%.

Take `CCc1ncc2c(n1)CN(C(=O)Nc1nc(-c3ccc(F)cc3)ccc1N)C2` [Compound 17]: in series [1], the “Erythroid % control @ 10 uM dose” value is listed as 59.6%. Moreover, the “Myeloid % control @ 10 uM dose” value in series [2] was determined as 79.1%.

For the origin of these results see US10793567B2, “Bicyclic inhibitors of histone deacetylase” (Rodin Therapeutics, Inc., priority 2017, dated 2020).
